Data set [1] concerns HL-60. Briefly: Cytotoxicity against human HL60 cells by XTT assay. The class given is functional, cell-based. On the technique in general: Formazan colour is commonly taken as a measure of viable cells.
For data set [2], the system named is HL-60. Description: Antioxidant activity in human HL60 cells assessed as inhibition of TPA-stimulated hydrogen peroxide induced DCFH-DA oxidation by fluorometric microplate assay. The class given is functional, cell-based.
Data set [3] deals with LLC-PK1. Briefly: Cytotoxicity against pig LLC-PK1 cells upto 48 uM. The format is cell-based, Sus scrofa.
Data set [4] concerns Vero. Description: Cytotoxicity against african green monkey Vero cells upto 48 uM. The class given is cell-based. As to conditions: chlorocebus sabaeus.

pIC50: −log10 of the molar value. The source made the active and inactive calls. The rule behind the calls is not given here.

Take `COc1cc2c(c(OC)c1OC)-c1c(cc3c(c1OC)OCO3)C[C@H](C)[C@](C)(O)C2`: the result in data set [1] and in data set [2] was inactive.

By pIC50 is commonly meant the negative decadic logarithm of the IC50, by convention in mol/L. Take `C/C=C(/C)C(=O)Oc1c(OC)c(OC)cc2c1-c1c(cc(OC)c(OC)c1OC)CC(C)(O)C(C)C2` (centres undefined) [ANGELOYLGOMISIN]: the pIC50 is 4.34 in data set [1] and 4.09 in data set [2]. In addition, the Activity result in data set [3] and in data set [4] was “Not Active” in each case.

As for `O=C1O[C@H]([C@@H](O)CO)C(O)=C1O` [ASCORBIC ACID], the outcome in data set [1] was inactive. Also, the pIC50 in data set [2] was 4.99.

In turn, `COc1cc2c(c(OC)c1OC)-c1c(cc(OC)c(OC)c1OC(=O)c1ccccc1)CC(C)C(C)(O)C2` (centres undefined) [BENZOYLGOMISIN H] showed a pIC50 in data set [1] of 4.39. Further, the Activity entry in data set [3] and in data set [4] was “Not Active” each time. The result in data set [2] was inactive.

Turning to `COc1cc2c(c(OC)c1OC)-c1c(cc3c(c1OC)OCO3)C[C@H](C)[C@@](C)(O)C2` [GOMISIN A], the Activity result in data set [3] and in data set [4] was “Not Active” in each case.

Regarding `C/C=C(/C)C(=O)O[C@H]1c2cc(OC)c(OC)c(OC)c2-c2c(cc3c(c2OC)OCO3)C[C@H](C)[C@]1(C)O` [GOMISIN B], the Activity result in data set [3] and in data set [4] was “Not Active” each time.

Regarding `C/C=C(\C)C(=O)O[C@H]1c2cc(OC)c(OC)c(OC)c2-c2c(cc3c(c2OC)OCO3)C[C@H](C)[C@]1(C)O` [GOMISIN B], in data set [1], the result was inactive. Besides, in data set [2], the pIC50 is less than 3.93.

Take `COc1cc2c(c(OC)c1OC)-c1c(cc3c(c1OC)OCO3)[C@H](OC(=O)c1ccccc1)[C@@](C)(O)[C@@H](C)C2` [GOMISIN G]: the pIC50 in data set [1] was 4.32; in data set [2], 4.42. For the same molecule, the Activity entry in data set [3] and in data set [4] was “Not Active” throughout.

Turning to `COc1cc2c(c(O)c1OC)-c1c(cc(OC)c(OC)c1OC)CC(C)C(C)C2` (centres undefined) [GOMISIN K3], the pIC50 in data set [1] is 4.25; in data set [2], less than 3.81. Also, the Activity result in data set [3] and in data set [4] was “Not Active” in each case.

Turning to `CC(Cc1ccc(O)c(O)c1)C(C)Cc1ccc(O)c(O)c1` (centres undefined) [NORDIHYDROGUAIARETIC ACID], the figures for the pIC50 in data set [1] and in data set [2] were 4.91 and 5.64, respectively.

For `C=C1[C@H](C)Cc2cc3c(c(OC)c2-c2c(cc4c(c2OC)OCO4)[C@H]1OC(=O)c1ccccc1)OCO3` [SCHISANDRENE], the pIC50 in data set [1] is 4.25; in data set [2], 5.55. Further, the Activity entry in data set [3] and in data set [4] was “Not Active” each time.

For `COc1cc2c(c(OC)c1OC)-c1c(cc(OC)c(OC)c1OC)C[C@H](C)[C@H](C)C2` [SCHISANDRIN A], the result in data set [1] and in data set [2] was inactive. Moreover, the Activity result in data set [3] and in data set [4] was “Not Active” in each case.

For the molecule `COc1c2c(cc3c1-c1c(cc4c(c1OC)OCO4)C[C@H](C)[C@H](C)C3)OCO2` [SCHISANDRIN C], the pIC50 in data set [1] is 4.39. In addition, the Activity entry in data set [3] and in data set [4] was “Not Active” each time. Also, the outcome in data set [2] was inactive.

In the case of `COc1cc2c(c(OC)c1OC)-c1c(cc(OC)c(OC)c1OC)C[C@](C)(O)[C@@H](C)C2` [SCHIZANDRIN], the result in data set [1] and in data set [2] was inactive. In addition, the Activity result in data set [3] and in data set [4] was “Not Active” each time.

Regarding `C/C=C(\C)C(=O)Oc1c(OC)c(OC)cc2c1-c1c(cc(OC)c(OC)c1OC)C[C@](C)(O)[C@@H](C)C2` [TIGLOYLGOMISIN H], the pIC50 in data set [1] was 4.35; in data set [2], less than 3.90. In addition, the Activity entry in data set [3] and in data set [4] was “Not Active” each time.

Turning to `Cc1c(C)c2c(c(C)c1O)CCC(C)(C(=O)O)O2` (centres undefined) [TROLOX], in data set [1], the outcome was inactive. In addition, in data set [2], the pIC50 is 5.44.

Consider `COc1cc2c(c(OC)c1OC)-c1c(cc3c(c1OC)OCO3)C[C@H](C)[C@H](C)C2` [WUWEIZISU B], for which the pIC50 in data set [1] is 4.28. In addition, the Activity entry in data set [3] and in data set [4] was “Not Active” throughout. Moreover, the outcome in data set [2] was inactive.
